Test results: patent publication US20250051347A1, “BIFUNCTIONAL CHIMERIC HETEROCYCLIC COMPOUND AND USE THEREOF AS ANDROGEN RECEPTOR DEGRADER” (Hinova Pharmaceuticals, Inc., priority 2021, published 2025)
Read-outs that look alike come from different tables or passages of the source.

Key:
[1] = molecular target: T1, androgen receptor (AR) splicing variant AR-v7 (Homo sapiens, UniProt P10275); assay: Degradation activity on androgen receptor splicing variant AR-v7 in 22RV1 cells (ELISA); type: cell-based; conditions: AR-v7 degradation in 22RV1 cells, 48 h, class symbols
T1 construct: The degradation activity of compounds on AR-v7 in 22RV1 cells; host or cells: 22RV1 cells
T1 sequence (P10275 1-644 isoform P10275-3): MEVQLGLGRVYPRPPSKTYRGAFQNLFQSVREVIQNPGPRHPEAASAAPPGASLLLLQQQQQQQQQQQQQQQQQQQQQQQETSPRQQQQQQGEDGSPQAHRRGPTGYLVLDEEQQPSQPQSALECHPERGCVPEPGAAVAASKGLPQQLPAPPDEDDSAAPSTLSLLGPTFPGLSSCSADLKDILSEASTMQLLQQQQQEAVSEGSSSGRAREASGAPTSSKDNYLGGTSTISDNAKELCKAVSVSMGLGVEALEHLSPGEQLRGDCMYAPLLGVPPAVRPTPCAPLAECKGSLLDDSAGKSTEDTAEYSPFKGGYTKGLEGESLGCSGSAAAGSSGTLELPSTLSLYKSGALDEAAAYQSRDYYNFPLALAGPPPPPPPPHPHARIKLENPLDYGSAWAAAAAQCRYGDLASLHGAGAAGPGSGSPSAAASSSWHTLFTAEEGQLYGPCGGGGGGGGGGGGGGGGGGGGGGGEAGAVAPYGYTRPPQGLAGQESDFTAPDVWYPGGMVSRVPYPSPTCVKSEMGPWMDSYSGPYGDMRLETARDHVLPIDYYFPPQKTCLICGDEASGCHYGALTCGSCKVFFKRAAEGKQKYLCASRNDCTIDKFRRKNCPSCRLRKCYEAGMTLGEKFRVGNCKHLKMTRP

[2] = Homo sapiens, 22Rv1, 144 h, read-out: 22RV1 IC50 (nM), 22RV1 cells, 6 days culture, CCK-8, OD 450 nm
[3] = read-out: 22RV1 IC50, 22RV1 cells, 6 days culture, CCK-8, OD 450 nm

## CC(C)(c1ccc(OCc2cccc(C(O)C3CC3)n2)cc1)c1ccc(O[C@H]2C[C@H](Nc3ccc4c(c3)C(=O)N(C3CCC(=O)NC3=O)C4=O)C2)cc1 (stereo partly drawn) [Example 116, 5-(((trans)-3-(4-(2-(4-((6-(cyclopropyl(hydroxyl)methyl)pyridin-2-yl)methoxy)phenyl)propan-2-yl)phenoxy)cyclobutyl)amino)-2-(2,6-dioxopiperidin-3-yl)isoindolin-1,3-dione]
22RV1 cells; [2]
  IC50: 17 nM
[1]
  DC50: < 10 nM

## CC(O)c1ccc(Oc2ccc(C(C)(C)c3ccc(O[C@H]4C[C@H](Nc5ccc6c(c5)C(=O)N(C5CCC(=O)NC5=O)C6=O)C4)cc3)cc2)cn1 (stereo partly drawn) [Example 123]
22RV1 cells; [2]
  IC50: 7 nM
[1]
  DC50: < 10 nM

## CC(=O)c1ccc(Oc2ccc(C(C)(C)c3ccc(O[C@H]4C[C@H](Nc5ccc6c(c5)C(=O)N(C5CCC(=O)NC5=O)C6=O)C4)cc3)cc2)cn1 (stereo partly drawn) [Example 124]
22RV1 cells; [2]
  IC50: 8 nM
[1]
  DC50: < 10 nM

## CC(=O)c1ncc(Oc2ccc(C(C)(C)c3ccc(O[C@H]4C[C@@H](Nc5ccc6c(c5)C(=O)N(C5CCC(=O)NC5=O)C6=O)C4)cc3)cc2)cn1 (stereo partly drawn) [Example 128, 5-(((cis)-3-(4-(2-(4-((2-acetylpyrimidin-5-yl)oxy)phenyl)propan-2-yl)phenoxy)cyclobutyl)amino)-2-(2,6-dioxopiperidin-3-yl)isoindolin-1,3-dione]
22RV1 cells; [2]
  IC50: 7 nM
[1]
  DC50: 11 to 100 nM

## CC(=O)c1cnc(Oc2ccc(C(C)(C)c3ccc(O[C@H]4C[C@@H](Nc5ccc6c(c5)C(=O)N(C5CCC(=O)NC5=O)C6=O)C4)cc3)cc2)cn1 (stereo partly drawn) [Example 130]
22RV1 cells; [2]
  IC50: 13 nM
[1]
  DC50: < 10 nM

## CCC(CC)(c1ccc(Oc2cnc(C(C)O)nc2)cc1)c1ccc(O[C@H]2C[C@H](Nc3ccc4c(c3)C(=O)N(C3CCC(=O)NC3=O)C4=O)C2)cc1 (stereo partly drawn) [Example 131]
22RV1 cells; [2]
  IC50: 4 nM
[1]
  DC50: < 10 nM

## CCC(CC)(c1ccc(Oc2cnc(C(C)=O)nc2)cc1)c1ccc(O[C@H]2C[C@H](Nc3ccc4c(c3)C(=O)N(C3CCC(=O)NC3=O)C4=O)C2)cc1 (stereo partly drawn) [Example 132]
22RV1 cells; [2]
  IC50: 5 nM
[1]
  DC50: < 10 nM

## CCC(CC)(c1ccc(Oc2cnc(C(C)O)nc2)cc1)c1ccc(O[C@H]2C[C@@H](Nc3ccc4c(c3)C(=O)N(C3CCC(=O)NC3=O)C4=O)C2)cc1 (stereo partly drawn) [Example 133]
22RV1 cells; [3]
  IC50: 9 nM
[1]
  DC50: < 10 nM

## CC(O)c1ncc(Oc2ccc(C3(c4ccc(O[C@H]5C[C@H](Nc6ccc7c(c6)C(=O)N(C6CCC(=O)NC6=O)C7=O)C5)cc4)CCCC3)cc2)cn1 (stereo partly drawn) [Example 134]
22RV1 cells; [2]
  IC50: < 1 nM
[1]
  DC50: < 10 nM

## CC(=O)c1ncc(Oc2ccc(C3(c4ccc(O[C@H]5C[C@H](Nc6ccc7c(c6)C(=O)N(C6CCC(=O)NC6=O)C7=O)C5)cc4)CCCC3)cc2)cn1 (stereo partly drawn) [Example 135]
22RV1 cells; [2]
  IC50: 2 nM
[1]
  DC50: < 10 nM

## CN1CCN(C(=O)c2noc(COc3ccc(C(C)(C)c4ccc(OCCCNc5ccc6c(c5)C(=O)N(C5CCC(=O)NC5=O)C6=O)cc4)cc3)n2)CC1 (stereo not drawn) [Example 141]
22RV1 cells; [2]
  IC50: 85 nM
[1]
  DC50: 11 to 100 nM

## CC(C)(c1ccc(OCCCNc2ccc3c(c2)C(=O)N(C2CCC(=O)NC2=O)C3=O)cc1)c1ccc(OCc2nc(C(=O)N3CCOCC3)no2)cc1 (stereo not drawn) [Example 142, 2-(2,6-dioxopiperidin-3-yl)-5-((3-(4-(2-(4-((3-(morpholine-4-carbonyl)-1,2,4-oxadiazol-5-yl)methoxy)phenyl)propan-2-yl)phenoxy)propyl)amino)isoindolin-1,3-dione]
22RV1 cells; [2]
  IC50: 61 nM
[1]
  DC50: 11 to 100 nM

## CC(C)(c1ccc(OCCCNc2ccc3c(c2)C(=O)N(C2CCC(=O)NC2=O)C3=O)cc1)c1ccc(OCc2nc(C(N)=O)no2)cc1 (stereo not drawn) [Example 143, 5-((4-(2-(4-(3-((2-(2,6-dioxopiperidin-3-yl)-1,3-dioxoisoindolin-5-yl)amino)propoxy)phenyl)propan-2-yl)phenoxy)methyl)-1,2,4-oxadiazol-3-carbonylamine]
22RV1 cells; [2]
  IC50: 160 nM
[1]
  DC50: 11 to 100 nM

## CC(C)(c1ccc(Oc2nccc(N3CC4(COC4)C3)n2)cc1)c1ccc(O[C@H]2C[C@@H](Nc3ccc4c(c3)C(=O)N(C3CCC(=O)NC3=O)C4=O)C2)cc1 (stereo partly drawn) [Example 155]
22RV1 cells; [2]
  IC50: 39 nM
[1]
  DC50: < 10 nM

## CC(C)(c1ccc(Oc2nccc(N3CC4(COC4)C3)n2)cc1)c1ccc(O[C@H]2C[C@H](Nc3ccc4c(c3)C(=O)N(C3CCC(=O)NC3=O)C4=O)C2)cc1 (stereo partly drawn) [Example 156]
22RV1 cells; [2]
  IC50: 10 nM
[1]
  DC50: < 10 nM

## CC(C)(c1ccc(Oc2ncnc(N3CC4(COC4)C3)n2)cc1)c1ccc(O[C@H]2C[C@H](Nc3ccc4c(c3)C(=O)N(C3CCC(=O)NC3=O)C4=O)C2)cc1 (stereo partly drawn) [Example 160]
22RV1 cells; [2]
  IC50: 8 nM
[1]
  DC50: < 10 nM

## CC(C)(O)c1ccnc(Oc2ccc(C(C)(C)c3ccc(O[C@H]4C[C@H](Nc5ccc6c(c5)C(=O)N(C5CCC(=O)NC5=O)C6=O)C4)cc3)cc2)n1 (stereo partly drawn) [Example 161]
22RV1 cells; [2]
  IC50: 10 nM
[1]
  DC50: < 10 nM

## CC(C)(O)c1cncc(Oc2ccc(C(C)(C)c3ccc(O[C@H]4C[C@H](Nc5ccc6c(c5)C(=O)N(C5CCC(=O)NC5=O)C6=O)C4)cc3)cc2)n1 (stereo partly drawn) [Example 162]
22RV1 cells; [2]
  IC50: 10 nM
[1]
  DC50: < 10 nM

## CC(C)(c1ccc(Oc2cc(-n3nccn3)ccn2)cc1)c1ccc(O[C@H]2C[C@H](Nc3ccc4c(c3)C(=O)N(C3CCC(=O)NC3=O)C4=O)C2)cc1 (stereo partly drawn) [Example 168]
22RV1 cells; [2]
  IC50: 18 nM
[1]
  DC50: 11 to 100 nM

## CC(C)(c1ccc(Oc2cc(-n3ccnn3)ccn2)cc1)c1ccc(O[C@H]2C[C@H](Nc3ccc4c(c3)C(=O)N(C3CCC(=O)NC3=O)C4=O)C2)cc1 (stereo partly drawn) [Example 169]
22RV1 cells; [2]
  IC50: 10 nM
[1]
  DC50: < 10 nM

## CC(C)(c1ccc(Oc2nccc(-n3nccn3)n2)cc1)c1ccc(O[C@H]2C[C@H](Nc3ccc4c(c3)C(=O)N(C3CCC(=O)NC3=O)C4=O)C2)cc1 (stereo partly drawn) [Example 170, 5-(((1r,3r)-3-(4-(2-(4-((4-(2H-1,2,3-triazol-2-yl)pyrimidin-2-yl)oxy)phenyl)propan-2-yl)phenoxy)cyclobutyl)amino)-2-(2,6-dioxopiperidin-3-yl)isoindol-1,3-dione]
22RV1 cells; [2]
  IC50: 9 nM
[1]
  DC50: < 10 nM

## Cc1nnc(-c2cc(Oc3ccc(C(C)(C)c4ccc(O[C@H]5C[C@H](Nc6ccc7c(c6)C(=O)N(C6CCC(=O)NC6=O)C7=O)C5)cc4)cc3)ccn2)o1 (stereo partly drawn) [Example 172, 2-(2,6-dioxopyridin-3-yl)-5-(((1r,3r)-3-(4-(2-(4-((2-(5-methyl-1,3,4-oxadiazol-2-yl)pyridin-4-yl)oxy)phenyl)propan-2-yl)phenoxy)cyclobutyl)amino) isoindolin-1,3-dione]
22RV1 cells; [2]
  IC50: 19 nM
[1]
  DC50: < 10 nM

## Cc1nc(-c2ccnc(Oc3ccc(C(C)(C)c4ccc(O[C@H]5C[C@@H](Nc6ccc7c(c6)C(=O)N(C6CCC(=O)NC6=O)C7=O)C5)cc4)cc3)n2)no1 (stereo partly drawn) [Example 173, 2-(2,6-dioxopiperidin-3-yl)-5-(((1s,3s)-3-(4-(2-(4-((4-(5-methyl-1,2,4-oxadiazol-3-yl)pyrimidin-2-yl)oxy)phenyl)propan-2-yl)phenoxy)cyclobutyl)amino)isoindolin-1,3-dione]
22RV1 cells; [2]
  IC50: 13 nM
[1]
  DC50: 11 to 100 nM

## CCC(CC)(c1ccc(Oc2ccc(C(C)=O)nn2)cc1)c1ccc(O[C@H]2C[C@H](Nc3ccc4c(c3)C(=O)N(C3CCC(=O)NC3=O)C4=O)C2)cc1 (stereo partly drawn) [Example 176, 5-(((1r,3r)-3-(4-(3-(4-((6-acetylpyridazine-3-yl)oxy)phenyl)pentan-3-yl)phenoxy)cyclobutyl)amino)-2-(2,6-dioxopiperidin-3-yl)isoindolin-1,3-dione]
22RV1 cells; [2]
  IC50: 2 nM
[1]
  DC50: < 10 nM

## CC(=O)c1cnc(Oc2ccc(C3(c4ccc(OC5CC(Nc6ccc7c(c6)C(=O)N(C6CCC(=O)NC6=O)C7=O)C5)cc4)CCCC3)cc2)cn1 (stereo not drawn) [Example 177, 5-(((1r,3r)-3-(4-(1-(4-((5-acetylpyrazin-2-yl)oxy)phenyl)cyclopentyl)phenoxy)cyclobutyl)amino)-2-(2,6-dioxopiperidin-3-yl)isoindolin-1,3-dione]
22RV1 cells; [3]
  IC50: 2 nM
[1]
  DC50: < 10 nM

## C[C@@H](O)c1cnc(Oc2ccc(C3(c4ccc(OC5CC(Nc6ccc7c(c6)C(=O)N(C6CCC(=O)NC6=O)C7=O)C5)cc4)CCCC3)cc2)cn1 (stereo partly drawn) [Example 178, 2-(2,6-dioxopiperidin-3-yl)-5-(((1r,3r)-3-(4-(1-(4-((5-(1-hydroxylethyl)pyrazin-2-yl)oxy)phenyl)cyclopentyl)phenoxy)cyclobutyl)amino) isoindolin-1,3-dione]
22RV1 cells; [3]
  IC50: 5 nM
[1]
  DC50: < 10 nM

## CN(C)C(=O)c1noc(COc2ccc(C(C)(C)c3ccc(OCCCNc4cccc5c4C(=O)N(C4CCC(=O)NC4=O)C5=O)cc3)cc2)n1 (stereo not drawn) [Example 181, 5-((4-(2-(4-(3-((2-(2,6-dioxopiperidin-3-yl)-1,3-dioxoisoindolin-4-yl)amino)propoxy)phenyl)propan-2-yl)phenoxy)methyl)-N,N-dimethyl-1,2,4-oxadiazol-3-carbonylamine]
22RV1 cells; [2]
  IC50: 140 nM
[1]
  DC50: 1000 to 5000 nM
